Measured values from PMC9513234, “Synthesis and Biological Evaluation of Termini-Modified and Cyclic Variants of the Connexin43 Inhibitor Peptide5” (Frontiers in Chemistry, 2022).

Tests used:
[1] = set-up: method as in Kumagai et al., 1991; settings: ref Kumagai et al., 1991; cited from earlier work
[2] = cited from earlier work
[3] = system: hemichannels; set-up: method as in O’Carroll et al., 2008; settings: in vitro; ref O’Carroll et al., 2008; cited from earlier work
[4] = system: gap junctions in hCMVEC cells; settings: 100 µM, mean ± SEM
Experimental: We next investigated the ability of peptide5 variants to inhibit gap junctional communication using a scrape loading assay. In this assay, the cells in culture are loaded with a dye (Lucifer Yellow dilithium salt (LY), M.W. 457.25 Da) of molecular size (<1 kDa) that is able to transit through the gap junctions and the degree of dye spread is then measured by counting the number of cells that contain LY (Supplementary Material, Method 4) ^1. Consistent with our previous study, peptide5 (1) and Cbx reduced the degree of dye spread following incubation with LY (56.16 ± 2.1%; p < 0.0001 and 16.2 ± 1.1%; p < 0.0001, respectively) compared to the untreated controls (Figure 12).
Human cerebral microvascular endothelial cells (hCMVEC) were purchased from Applied Biological Materials (ABM) Inc, Canada (cat # T0259) (O'Carroll et al., 2015). Cells were cultured in 1 μg/cm^2 collagen I (Gibco) coated T75 flasks from Corning (NY, USA). The growth media was M199 media (Gibco), supplemented with 10% FBS, 1 μg/mL hydrocortisone (Sigma), 3 μg/mL human FGF (Peprotech), 10 μg/mL human EGF (Peprotech), 10 μg/mL heparin (Sigma), 2 mM Glutamax (Gibco), and 80 μM butyryl cAMP (Sigma).
For experiments hCMVECs cells were plated M199 media at a density of 4 x 10^5 cells per well in a collagen coated (1 µg/cm^2) 12-well plate the day prior to the experiment to ensure a confluent monolayer of hCMVECs. On the day of the experiment cells were pre-incubated in carbenoxolone, (100 µM) Peptide5 (5–100 µM) or modified analogues (100 µM) or M199 as a negative control. Cells were washed three times with phosphate buffered saline (PBS) without Ca^2+ or Mg^2+ and incubated in 0.05% Lucifer Yellow (LY) (Sigma), a fluorescent dye that is transferred through coupled gap junction channels (el-Fouly, Trosko, & Chang, 1987), and scrape-wounded with a size 10 carbon steel surgical blade (Swann-Morton, England). Following a 5 minute incubation at 37 °C in 95% O2 and 5% CO2 without light, the 0.05% LY solution was removed. Cells were rinsed four times with HBSS containing Ca^2+ ^+, and then fixed in 4% paraformaldehyde (PFA) in PBS at pH 7.4 for 10 minutes at room temperature. Cells were then washed 3 times in PBS to remove PFA before fluorescent imaging. Fluorescent images were visualized using a Nikon TE2000E inverted fluorescent microscope (10x magnification, 0.3 numerical aperture), and captured using a Digital Sight CCD camera and Eclipse Net software (Nikon). Three images within each well from three independent experiments were taken for analysis, and the total number of cells showing dye uptake from those that had been loaded were counted manually by masked observers. Each peptide was tested in at least an n of 2 separate experiments.

[5] = system: gap junctions; settings: in vitro, higher concentrations; ref O’Carroll et al., 2008; cited from earlier work
[6] = Human serum stability assay (RP-HPLC)
Experimental: We then evaluated the N-methylated variants 7 and 8, D amino acid variants 9 and 10, and the two carbo cyclic peptides 39 and 42. Each peptide was incubated with 25% aq. human serum at 37°C, and 6 aliquots were extracted within 48 h. The stability of each peptide upon exposure to human serum was then analyzed via analytical RP HPLC, and the amount of peptide still present at each time point was recorded relative to t = 0 h.
Whole blood was collected from a healthy volunteer and stored in a covered test tube and was allowed to clot by leaving it undisturbed at r.t. for ca. 1 h. The clot was removed by centrifugation at 1,000-2,000 x g for 10 min and the resulting supernatant was designated as the serum. The serum was collected and stored in 0.5 mL aliquots, whereby the samples were stored at - 20 °C.
200 µM concentration of peptide was incubated in 25% aq. human serum (1.7 mL) and left to shake at 37 °C. Aliquots of human serum-peptide mixture (270 µL) were taken at given times (0 h, 1 h, 4 h, 8 h, 24 h, and 48 h) and threefold excess of acetonitrile (810 µL) was added to the aliquot and left for 1 h at 0 °C. The samples underwent centrifugation (14,500 rpm) for 30 min at r.t. and the supernatant was subsequently collected. Upon evaporation of the solvents, the resulting dry, pale-yellow residue was dissolved in water containing 0.1 % TFA.
The dissolved solution was analysed via analytical RP HPLC and the quantity of the peptide was expressed as a percentage relative to the peptide peak area obtained at time zero (i.e. 100% peptide amount at t = 0 h). A scatterplot graph representing percentage of peptide versus time was generated.

Substance	increase in binding compared to its linear form [1] [fold]	half-life in rat serum [2] [min]	concentration selectively inhibiting hemichannels [3] [µM]	LY dye spread (number of LY-positive cells) as percentage of untreated control [4] [%]	concentration inhibiting both gap junctions and hemichannels [5] [µM]	time to complete degradation in human serum [6] [h]
cilengitide	10	–	–	–	–	–
H-VDCFLSRPTEKT-OH [peptide5, H2N-VDCFLSRPTEKT-CO2H]	–	5	≥ 5	56.16 ± 2.1	500	≤ 10
